Reference: patent US7985731B2, “Sugar chain added GLP-1 peptide” (Otsuka Chemical Holdings Co., Ltd., priority 2007, dated 2011)
Peptide text beside a SMILES is read from it. * marks the point of attachment. X1 = CC(=O)N[C@@H]1[C@@H](O)[C@H](O[C@@H]2O[C@H](CO)[C@@H](O[C@@H]3O[C@H](CO[C@H]4O[C@H](CO)[C@@H](O)[C@H](O)[C@@H]4O[C@@H]4O[C@H](CO)[C@@H](O[C@@H]5O[C@H](CO[C@]6(C(=O)O)C[C@H](O)[C@@H](NC(C)=O)[C@H]([C@H](O)[C@H](O)CO)O6)[C@H](O)[C@H](O)[C@H]5O)[C@H](O)[C@H]4NC(C)=O)[C@@H](O)[C@H](O[C@H]4O[C@H](CO)[C@@H](O)[C@H](O)[C@@H]4O[C@@H]4O[C@H](CO)[C@@H](O[C@@H]5O[C@H](CO[C@]6(C(=O)O)C[C@H](O)[C@@H](NC(C)=O)[C@H]([C@H](O)[C@H](O)CO)O6)[C@H](O)[C@H](O)[C@H]5O)[C@H](O)[C@H]4NC(C)=O)[C@@H]3O)[C@H](O)[C@H]2NC(C)=O)[C@@H](CO)O[C@H]1NC(=O)C*

Key:
mouse GLP-1 receptor = biological target: T1, mouse GLP-1 receptor (Mus musculus, UniProt O35659); experiment: Test Example 6: ability to synthesize cAMP in mouse GLP-1 receptor-expressing CHO-K1 cells; format: cell-based
T1 construct: expressed in transfected cells
T1 sequence (O35659 22-463): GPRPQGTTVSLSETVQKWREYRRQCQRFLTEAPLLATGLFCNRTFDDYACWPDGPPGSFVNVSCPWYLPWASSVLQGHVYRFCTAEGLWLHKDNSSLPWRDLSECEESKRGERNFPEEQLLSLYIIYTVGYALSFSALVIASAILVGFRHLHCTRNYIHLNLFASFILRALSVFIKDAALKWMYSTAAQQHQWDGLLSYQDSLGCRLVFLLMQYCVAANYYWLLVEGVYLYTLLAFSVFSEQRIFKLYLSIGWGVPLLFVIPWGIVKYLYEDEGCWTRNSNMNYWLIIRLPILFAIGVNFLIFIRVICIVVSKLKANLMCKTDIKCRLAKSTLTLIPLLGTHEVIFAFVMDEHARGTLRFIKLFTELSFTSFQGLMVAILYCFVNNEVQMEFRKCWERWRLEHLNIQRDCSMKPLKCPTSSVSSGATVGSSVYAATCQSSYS
Procedure: 1. Construction of Mouse GLP-1 Receptor-Expressing Vector
A mouse GLP1 receptor sense primer (5′-[…]-3′) (SEQ ID NO: 152) and a mouse GLP-1 receptor antisense primer (5′-[…]-3′) (SEQ ID NO: 153) capable of binding to the 5′ and 3′ ends of mouse GLP-1 receptor cDNA were separately synthesized. PCR was performed using Ex Taq polymerase (TaKaRa) with cDNA (Clone ID: 40046534, Open Biosystems) as a template. Specifically, 50 μL in total of reaction solution consisting of 1 μL of template cDNA (10 ng/μL), 4 μL of 2.5 mM dNTPs, 1 μL of primer solution mixtures (each 50 μM), 5 μL of ×10 Ex Taq polymerase Buffer, 0.25 μL of Ex Taq polymerase and 38.75 μL of sterilized water was used and allowed to react by 94° C. for 1 minute; 94° C. for 45 seconds, 55° C. for 1 minute and 72° C. for 2 minutes (35 cycles); and 72° C. for 10 minutes. The PCR reaction product was electrophoresed on 1% agarose gel, and the cDNA fragment was purified using Wizard SV Gel and PCR Clean-up System (Promega) and treated with restriction enzymes (EcoRI and NheI) to obtain mouse GLP-1 receptor cDNA.
To efficiently obtain cells highly expressing a mouse GLP-1 receptor, a pIRES-gfp vector was used as an expression vector. This vector was prepared by inserting, to a vector pEGFP-N1 (Clontech), an IRES gene-containing DNA fragment obtained by the restriction enzyme treatment (Sal I and BamHI) of pIRESpuro2 (Clontech).
The mouse GLP-1 receptor cDNA fragment was inserted to pIRES-gfp to thereby obtain a mouse GLP-1 receptor-expressing vector mGLP-1R/pIRES-gfp. The DNA sequence of the obtained vector was confirmed using ABI3100-Avant (Applied Biosystems).
2. Preparation of Mouse GLP-1 Receptor-Expressing CHO-K1 Cells
CHO-K1 cells (ATCC catalog No. CCL-61) were transfected with the obtained mGLP-1R/pIRES-gfp using FuGENE (registered trademark) (Roche) according to the instruction manual. The transfected CHO-K1 cells were cultured in RPMI1640 medium (Wako Pure Chemical Industries) containing 10% FCS (Hyclone) and penicillin-streptomycin (SIGMA). Drug selection was conducted by the addition of 1.0 mg/ml G418 (Wako Pure Chemical Industries). The drug resistance cells were sorted with a cell sorter (EPICS ALTRA, Beckman Coulter) using a GFP expression level as an index. After the sorting, the limiting dilution method was conducted to obtain cells highly expressing GFP, namely, cells highly expressing a mouse GLP-1 receptor. The obtained cells were used as mouse GLP-1 receptor-expressing CHO-K1 cells in the experiment shown below.
3. Analysis of Agonist Effect of Oligosaccharide Chain Added GLP-1 Peptide (Ability to Synthesize cAMP)
The mouse GLP-1 receptor-expressing CHO-K1 cells prepared in the preceding paragraph 2 were used to evaluate the agonist effect of the oligosaccharide chain added GLP-1 peptide using the ability to synthesize cAMP as an index.
The mouse GLP-1 receptor-expressing CHO-K1 cells were suspended at a concentration of 5×10^5 cells/ml in RPMI1640 medium containing 10% FCS. The cell suspension was seeded at a concentration of 100 μL per well to a flat-bottomed 96-well plate (Falcon) and cultured at 5% CO2 at 37° C. for 16 hours. The culture supernatant was discarded. The oligosaccharide chain added GLP-1 peptide dissolved in Krebs Ringer bicarbonate Buffer containing 2.5 mM glucose was added at a concentration of 100 μL/well and cultured at 37° C. for 30 minutes. The culture supernatant was immediately discarded. The amount of cAMP synthesized in the mouse GLP-1 receptor-expressing CHO-K1 cells was measured using cAMP ELISA Kit (GE Healthcare or Cayman) and used as an index for the agonist effect of the oligosaccharide chain added GLP-1 peptide on mouse GLP-1 receptors.
GLP-1 increases intracellular cAMP concentrations through the binding to its receptor and promotes insulin secretion. Thus, the activity of the oligosaccharide chain added GLP-1 peptide was evaluated using the ability to synthesize cAMP as an index. […]

[1] = system: db/db (BKS.Cg-+Lepr db/+Lepr db/Jcl) mice; experiment: Test Example 8: effect of lowering blood-sugar levels in diabetes model mice; format: in vivo; conditions: 9 nmol/kg intraperitoneal
Procedure: The oligosaccharide chain added GLP-1 peptide prepared in Example 2, 3, 4, 21 or 23 or the GLP-1 prepared in Comparative Example 1 in a PBS solution (9 nmol/10 ml) was intraperitoneally administered at a dose of 10 ml/kg to BKS.Cg−+Lepr^db/+Lepr^db/Jcl mice (10 week old, male). Blood was collected from the orbits before the compound administration and 30 minutes, 60 minutes, 120 minutes, 180 minutes and 300 minutes after the compound administration. Blood-sugar levels were measured using ACCU-CHEK Aviva (Roche Diagnostics).
The db/db (BKS.Cg−+Lepr^db/+Lepr^db/Jcl) mice serving as diabetes model mice have a mutation in a receptor of leptin which is anorexigenic/energy metabolism-accelerating hormone and develops conditions such as obesity or hyperglycemia.
Blood-sugar levels were measured over time, and their effects of lowering blood-sugar levels were compared with that of the GLP-1 without oligosaccharide chain addition of Comparative Example 1.

C57BL/6JJcl mice = experiment: Test Example 7: Oral Glucose Tolerance Test (OGTT); format: in vivo
Procedure: After 30 minutes, a glucose solution was orally administered at a dose of 1 mg/g. Blood was collected from the orbits before the glucose administration and 30 minutes, 60 minutes and 120 minutes after the glucose administration. Blood-sugar levels were measured using ACCU-CHEK Aviva (Roche Diagnostics).
After the oral administration of the glucose solution to the mice fasted overnight, blood was collected over time, and blood-sugar levels were measured.
The correlation between the oligosaccharide chain structure and the activity was studied in mouse OGTT.

[2] = 9 nmol/kg intraperitoneal 30 minutes before glucose 1 mg/g oral

Row | Compound | cAMP synthesis activity compared with GLP-1 (in words) (mouse GLP-1 receptor) | effect of lowering blood-sugar levels in db/db mice ([1]; 10-week-old male mice) | durability of effect of lowering blood-sugar levels in db/db mice ([1]; up to 300 minutes) | activity of suppressing rise in blood-sugar levels in OGTT (C57BL/6JJcl mice; 0.09 nmol/kg intraperitoneal) | effect of suppressing rise in blood-sugar levels in OGTT (C57BL/6JJcl mice; 0.9 nmol/kg intraperitoneal) | effect of suppressing rise in blood-sugar levels in OGTT (C57BL/6JJcl mice; [2]) | dose dependence of activity of suppressing rise in blood-sugar levels in OGTT (C57BL/6JJcl mice; doses 0.9 nmol/kg and 0.09 nmol/kg intraperitoneal)
1 | CC[C@H](C)[C@H](NC(=O)[C@H](Cc1ccccc1)NC(=O)[C@H](CCC(=O)O)NC(=O)[C@H](CCCCN)NC(=O)[C@H](C)NC(=O)[C@H](C)NC(=O)[C@H](CCC(N)=O)NC(=O)CNC(=O)[C@H](CCC(=O)O)NC(=O)[C@H](CC(C)C)NC(=O)[C@H](Cc1ccc(O)cc1)NC(=O)[C@H](CO)NC(=O)[C@H](CO)NC(=O)[C@@H](NC(=O)[C@H](CC(=O)O)NC(=O)[C@H](CO)NC(=O)[C@@H](NC(=O)[C@H](Cc1ccccc1)NC(=O)[C@@H](NC(=O)CNC(=O)[C@H](CCC(=O)O)NC(=O)[C@H](C)NC(=O)[C@@H](N)Cc1c[nH]cn1)[C@@H](C)O)[C@@H](C)O)C(C)C)C(=O)N[C@@H](CSCC(=O)N[C@@H]1O[C@H](CO)[C@@H](O[C@@H]2O[C@H](CO)[C@@H](O[C@@H]3O[C@H](CO[C@H]4O[C@H](CO)[C@@H](O)[C@H](O)[C@@H]4O[C@@H]4O[C@H](CO)[C@@H](O[C@@H]5O[C@H](CO[C@]6(C(=O)O)C[C@H](O)[C@@H](NC(C)=O)[C@H]([C@H](O)[C@H](O)CO)O6)[C@H](O)[C@H](O)[C@H]5O)[C@H](O)[C@H]4NC(C)=O)[C@@H](O)[C@H](O[C@H]4O[C@H](CO)[C@@H](O)[C@H](O)[C@@H]4O[C@@H]4O[C@H](CO)[C@@H](O[C@@H]5O[C@H](CO[C@]6(C(=O)O)C[C@H](O)[C@@H](NC(C)=O)[C@H]([C@H](O)[C@H](O)CO)O6)[C@H](O)[C@H](O)[C@H]5O)[C@H](O)[C@H]4NC(C)=O)[C@@H]3O)[C@H](O)[C@H]2NC(C)=O)[C@H](O)[C@H]1NC(C)=O)C(=O)N[C@@H](Cc1c[nH]c2ccccc12)C(=O)N[C@@H](CC(C)C)C(=O)N[C@H](C(=O)N[C@@H](CCCCN)C(=O)NCC(=O)N[C@@H](CCCNC(=N)N)C(=O)NCC(=O)O)C(C)C [Example 21, 30Cys GLP-1-disialo] (H-HAEGTFTSDVSSYLEGQAAKEFIC(X1)WLVKGRG-OH) | activity equal to or more than that of the GLP-1 | strong effect of lowering blood-sugar levels | blood-sugar levels were kept at low levels after 300 minutes | weaker activity of suppressing rise in blood-sugar levels than that of the 36Cys GLP-1-disialo at the same dose | suppressed rise in blood-sugar levels almost completely | strong effect of suppressing rise in blood-sugar levels | dose-dependent activity of suppressing rise in blood-sugar levels
2 | CC[C@H](C)[C@H](NC(=O)[C@H](Cc1ccccc1)NC(=O)[C@H](CCC(=O)O)NC(=O)[C@H](CSCC(=O)N[C@@H]1O[C@H](CO)[C@@H](O[C@@H]2O[C@H](CO)[C@@H](O[C@@H]3O[C@H](CO[C@H]4O[C@H](CO)[C@@H](O)[C@H](O)[C@@H]4O[C@@H]4O[C@H](CO)[C@@H](O[C@@H]5O[C@H](CO)[C@H](O)[C@H](O)[C@H]5O)[C@H](O)[C@H]4NC(C)=O)[C@@H](O)[C@H](O[C@H]4O[C@H](CO)[C@@H](O)[C@H](O)[C@@H]4O[C@@H]4O[C@H](CO)[C@@H](O[C@@H]5O[C@H](CO)[C@H](O)[C@H](O)[C@H]5O)[C@H](O)[C@H]4NC(C)=O)[C@@H]3O)[C@H](O)[C@H]2NC(C)=O)[C@H](O)[C@H]1NC(C)=O)NC(=O)[C@H](C)NC(=O)[C@H](C)NC(=O)[C@H](CCC(N)=O)NC(=O)CNC(=O)[C@H](CCC(=O)O)NC(=O)[C@H](CC(C)C)NC(=O)[C@H](Cc1ccc(O)cc1)NC(=O)[C@H](CO)NC(=O)[C@H](CO)NC(=O)[C@@H](NC(=O)[C@H](CC(=O)O)NC(=O)[C@H](CO)NC(=O)[C@@H](NC(=O)[C@H](Cc1ccccc1)NC(=O)[C@@H](NC(=O)CNC(=O)[C@H](CCC(=O)O)NC(=O)[C@H](C)NC(=O)[C@@H](N)Cc1c[nH]cn1)[C@@H](C)O)[C@@H](C)O)C(C)C)C(=O)N[C@@H](C)C(=O)N[C@@H](Cc1c[nH]c2ccccc12)C(=O)N[C@@H](CC(C)C)C(=O)N[C@H](C(=O)N[C@@H](CCCCN)C(=O)NCC(=O)N[C@@H](CCCNC(=N)N)C(=O)NCC(=O)O)C(C)C [Example 25, 26Cys GLP-1-asialo] | activity equal to or more than that of the GLP-1 | – | – | – | – | strong effect of suppressing rise in blood-sugar levels | –
